Test results: patent US20120309812A1 (SYNGENTA CROP PROTECTION LLC, priority 2010, published 2012)

Experiments:
Myzus persicae = Myzus persicae (Green peach aphid) sunflower leaf disc spray test; format: in vivo; conditions: application rate 200 ppm, sprayed sunflower leaf discs, aphid population of mixed ages, mortality 6 DAT
Procedure: Myzus persicae (Green peach aphid):
Sunflower leaf discs were placed on agar in a 24-well microtiter plate and sprayed with test solutions at an application rate of 200 ppm. After drying, the leaf discs were infested with an aphid population of mixed ages. After an incubation period of 6 DAT, samples were checked for mortality. The following compound gave at least 80% control of Myzus persicae: A3.

melting point	SMILES	control of Myzus persicae (Myzus persicae)
–	COc1c(NC(=O)c2ccccc2)cccc1C(=O)Nc1c(Cl)cc(C(F)(c2ccc(Cl)cc2)C(F)(F)F)cc1Cl (centres unmarked) [A3]	at least 80%
197 to 199 °C	O=C(Nc1c(Cl)cc(C(F)(c2ccsc2)C(F)(F)F)cc1Cl)c1cccc(NC(=O)c2c(F)cc(F)cc2F)c1F (centres unmarked) [A5, N-{3-[2,6-Dichloro-4-(2,2,2-trifluoro-1-fluoro-1-thiophen-3-ylethyl)-phenylcarbamoyl]-2-fluorophenyl}-2,4,6-trifluorobenzamide]	–
